# Measured values as given in patent publication US6673791B2, “Non-nucleoside reverse transcriptase inhibitors” (Boehringer Ingelheim (Canada) Ltd., priority 2001, dated 2004).
# pEC50, pIC50: −log10 of the molar value. Like-named read-outs stand apart in the source and are kept apart here.
# How the values were obtained:
# [1] = test system: WT RT (HIV-1 wild type strain); assay: EC50 assay, WT RT strain; type: cell-based; settings: for EC50: Human immunodeficiency virus 1, read-out: EC50 WT RT (nM)
# Excerpt: (§1) Reverse TranscriptASE (RT) Assays
# (§2) The assays are as described in WO 01/96338A1, the contents of which are hereby incorporated herein. The results are listed in Tables 8 as IC50(nM) and EC50(nM).
# [2] = test system: K103N/Y181C (HIV-1 double mutant strain); assay: EC50 assay, K103N/Y181C strain; type: cell-based; settings: for EC50: Human immunodeficiency virus 1, read-out: EC50 K103N/Y181C (nM), K103N/Y181C double mutant
# Excerpt: as §1, §2
# [3] = target: T1, Y188L mutant RT (HIV-1 RT) (Human immunodeficiency virus type 1 group M subtype B, UniProt P03366, Y787L); assay: biochemical; settings: for IC50: IC50 Y188L (nM)
# T1 construct: mutations that occur in the reverse transcriptase segment of the pol gene
# Excerpt: (§3) Based upon testing of these compounds, as described below, it is known that they inhibit the RNA-dependent DNA polymerase activity of HIV-1 RT. […] Utilising the Reverse Transcriptase (RT) Assay described below, compounds can be tested for their ability to inhibit the RNA-dependent DNA polymerase activity of HIV-1 RT. Certain specific compounds described in the Examples which appear below, were so tested. The results of this testing appear in Table 4 as IC50 (nM) and Table 5 as EC50 (nM).
# as §1, §2
# WT RT (HIV-1 RT) = target: T2, WT RT (HIV-1 RT) (Human immunodeficiency virus type 1 group M subtype B, UniProt P03366); assay: biochemical
# T2 construct: mutations that occur in the reverse transcriptase segment of the pol gene
# Excerpt: as §3, §1, §2
# [4] = target: T3, V106A mutant RT (HIV-1 RT) (Human immunodeficiency virus type 1 group M subtype B, UniProt P03366, V705A); assay: biochemical; settings: for IC50: IC50 V106A (nM)
# T3 construct: mutations that occur in the reverse transcriptase segment of the pol gene
# Excerpt: as §3, §1, §2
# [5] = target: T4, K103N/Y181C double mutant RT (HIV-1 RT) (Human immunodeficiency virus type 1 group M subtype B, UniProt P03366, K702N/Y780C); assay: biochemical
# T4 construct: mutations that occur in the reverse transcriptase segment of the pol gene
# Excerpt: as §3, §1, §2
SMILES,IC50 [3] [nM],pIC50 (WT RT (HIV-1 RT)),IC50 [4] [nM],pIC50 [5],further results
CCN1c2ncc(CCOc3ccc(C(=O)O)c4ccccc34)cc2C(=O)N(C)c2cccnc21 [Entry 1001],–,–,–,–,EC50 [1]: < 100 nM; EC50 [2]: < 100 nM
CCN1c2ncc(CCOc3ccc(C(=O)O)c4ccccc34)cc2C(=O)N(C)c2ccc(Cl)nc21 [Entry 1002],100 to 1000,> 7.00,100 to 1000,> 7.00,EC50 [1]: < 100 nM; EC50 [2]: < 100 nM
CCN1c2ncc(CCOc3ccc(C(=O)O)c4ccccc34)cc2C(=O)N(C)c2ccc(C)nc21 [Entry 1003],> 1000,> 7.00,> 1000,6.00 to 7.00,–
CCN1c2ncc(CCOc3ccc(C(=O)O)c4ccccc34)cc2C(=O)Nc2c(C)cc(F)nc21 [Entry 1004],> 1000,> 7.00,100 to 1000,6.00 to 7.00,–
CCN1c2ncc(CCOc3ccc(C(=O)O)c4ccccc34)cc2C(=O)Nc2c(C)ccnc21 [Entry 1005],> 1000,> 7.00,100 to 1000,6.00 to 7.00,–
CCN1c2ncc(CCOc3ccc(C(=O)O)c4ccccc34)cc2C(=O)N(C)c2ccc(F)nc21 [Entry 1006],> 1000,> 7.00,> 1000,6.00 to 7.00,EC50 [1]: < 100 nM; EC50 [2]: < 100 nM
CCN1c2ncc(CCOc3ccc(C(=O)O)c4ccccc34)cc2C(=O)Nc2c(C)cc(Cl)nc21 [Entry 1007],> 1000,> 7.00,100 to 1000,6.00 to 7.00,EC50 [1]: < 100 nM; EC50 [2]: < 100 nM
CCN1c2ncc(CCOc3ccc(CC(=O)O)c4ccccc34)cc2C(=O)N(C)c2cccnc21 [Entry 1008],–,–,–,–,"pEC50 ([1]; wild type, read-out: EC50 WT RT): > 7.00; pEC50 ([2]; K103N/Y181C double mutant, read-out: EC50 K103N/Y181C): > 7.00; pIC50 ([3]; read-out: IC50 Y188L): < 6.00; pIC50 (WT RT (HIV-1 RT); wild type RT, read-out: IC50 WT RT): > 7.00; pIC50 ([4]; read-out: IC50 V106A): < 6.00; pIC50 ([5]; K103N/Y181C double mutant RT, read-out: IC50 K103N/Y181C): 6.00 to 7.00"
CCN1c2ncc(CCOc3ccc(CC(=O)O)c4ccccc34)cc2C(=O)N(C)c2ccc(C)nc21 [Entry 1011],> 1000,> 7.00,> 1000,6.00 to 7.00,–
CCN1c2ncc(CCOc3ccc(CC(=O)O)c4ccccc34)cc2C(=O)Nc2c(C)ccnc21 [Entry 1013],> 1000,> 7.00,> 1000,< 6.00,–
CCN1c2ncc(CCOc3ccc(CC(=O)O)c4ccccc34)cc2C(=O)Nc2c(C)cc(F)nc21 [Entry 1014],> 1000,> 7.00,100 to 1000,6.00 to 7.00,–
CCN1c2ncc(CCOc3ccc(CC(=O)NN)c4ccccc34)cc2C(=O)N(C)c2ccc(NN)nc21 [Entry 1017],–,> 7.00,–,–,–
CCN1c2ncc(CCOc3ccc(CC(N)=O)c4ccccc34)cc2C(=O)N(C)c2cccnc21 [Entry 1018],> 1000,> 7.00,100 to 1000,> 7.00,–
CCN1c2ncc(CCOc3ccc(CCC(=O)O)c4ccccc34)cc2C(=O)Nc2c(C)ccnc21 [Entry 1024],> 1000,> 7.00,100 to 1000,< 6.00,–
CCN1c2ncc(CCOc3ccc(CCC(=O)O)c4ccccc34)cc2C(=O)N(C)c2ccc(C)nc21 [Entry 1026],> 1000,> 7.00,> 1000,6.00 to 7.00,–
CCN1c2ncc(CCOc3ccc(CCC(=O)O)c4ccccc34)cc2C(=O)Nc2c(C)cc(F)nc21 [Entry 1027],> 1000,> 7.00,100 to 1000,6.00 to 7.00,–
CCN1c2ncc(CCOc3ccc(/C=C(\C)C(=O)O)c4ccccc34)cc2C(=O)Nc2c(C)ccnc21 [Entry 1039],> 1000,> 7.00,100 to 1000,6.00 to 7.00,–
CCN1c2ncc(CCOc3ccc(/C=C(\C)C(=O)O)c4ccccc34)cc2C(=O)Nc2c(C)cc(F)nc21 [Entry 1041],> 1000,> 7.00,100 to 1000,6.00 to 7.00,–
CCN1c2ncc(CCOc3ccc(CC(C)C(=O)O)c4ccccc34)cc2C(=O)N(C)c2ccc(F)nc21 (centres unmarked) [Entry 1043],> 1000,> 7.00,> 1000,6.00 to 7.00,–
CCN1c2ncc(CCOc3ccc(CC(C)C(=O)O)c4ccccc34)cc2C(=O)N(C)c2ccc(C)nc21 (centres unmarked) [Entry 1045],> 1000,> 7.00,> 1000,6.00 to 7.00,–
